Measured values: the supplement of paper PMC10307832

Columns and labels:
Experiment in all cases: relative viability (nuclei count vs DMSO), 5 days (fraction); higher = more cells survive
[1] = compound: Cc1ccc2nc(NCCN)c3ncc(C)n3c2c1 + Cc1nc(NC(=O)N2CCC[C@H]2C(N)=O)sc1-c1ccnc(C(C)(C)C(F)(F)F)c1 [Alpelisib] (partner 2 µM)
Outline: (§1)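 Relative viability equals treated-well nuclei counts divided by vehicle-well nuclei counts. Counts came from 4× images of lung cancer cell lines grown in 1536-well plates for 5 days after pin-tool dosing on the day after seeding. Dosing used one drug alone or a fixed anchor-drug dose plus five library-drug doses (not always all listed) in √10 steps, and values are medians of duplicate plates.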

Salubrinal + Palbociclib = compound: O=C(/C=C/c1ccccc1)NC(NC(=S)Nc1cccc2cccnc12)C(Cl)(Cl)Cl [Salubrinal] + CC(=O)c1c(C)c2cnc(Nc3ccc(N4CCNCC4)cn3)nc2n(C2CCCC2)c1=O [Palbociclib] (partner 0.5 µM)
Outline: as §1

Salubrinal + Bortezomib = compound: O=C(/C=C/c1ccccc1)NC(NC(=S)Nc1cccc2cccnc12)C(Cl)(Cl)Cl [Salubrinal] + CC(C)C[C@H](NC(=O)[C@H](Cc1ccccc1)NC(=O)c1cnccn1)B(O)O [Bortezomib] (partner 0.002 µM)
Outline: as §1

Salubrinal + AZD7762 = compound: O=C(/C=C/c1ccccc1)NC(NC(=S)Nc1cccc2cccnc12)C(Cl)(Cl)Cl [Salubrinal] + NC(=O)Nc1cc(-c2cccc(F)c2)sc1C(=O)N[C@H]1CCCNC1 [AZD7762] (partner 0.2 µM)
Outline: as §1

Row | Cell Line | relative viability ([1]; first compound 0.04 µM) | relative viability ([1]; first compound 0.1265 µM) | relative viability ([1]; first compound 0.4 µM) | relative viability ([1]; first compound 1.265 µM) | relative viability ([1]; first compound 4 µM) | relative viability (Salubrinal + Palbociclib; first compound 0.08 µM) | relative viability (Salubrinal + Palbociclib; first compound 0.253 µM) | relative viability (Salubrinal + Palbociclib; first compound 0.8 µM) | relative viability (Salubrinal + Palbociclib; first compound 2.53 µM) | relative viability (Salubrinal + Palbociclib; first compound 8 µM) | relative viability (Salubrinal + Bortezomib; first compound 0.08 µM) | relative viability (Salubrinal + Bortezomib; first compound 0.253 µM) | relative viability (Salubrinal + Bortezomib; first compound 0.8 µM) | relative viability (Salubrinal + Bortezomib; first compound 2.53 µM) | relative viability (Salubrinal + Bortezomib; first compound 8 µM) | relative viability (Salubrinal + AZD7762; first compound 0.08 µM) | relative viability (Salubrinal + AZD7762; first compound 0.253 µM) | relative viability (Salubrinal + AZD7762; first compound 0.8 µM) | relative viability (Salubrinal + AZD7762; first compound 2.53 µM) | relative viability (Salubrinal + AZD7762; first compound 8 µM)
1 | NCI-H2023 | 0.637 | 0.573 | 0.616 | 0.563 | 0.549 | 0.346 | 0.32 | 0.359 | 0.419 | 0.328 | 1.2 | 1.03 | 0.967 | 1.02 | 0.858 |  |  |  |  | 
2 | NCI-H1648 |  |  |  |  |  | 0.255 | 0.258 | 0.252 | 0.22 | 0.236 |  |  |  |  |  | 0.733 | 0.62 | 0.705 | 0.654 | 0.575
3 | NCI-H520 | 0.882 | 1.05 | 0.957 | 0.781 | 1.03 | 0.25 | 0.225 | 0.23 | 0.21 | 0.271 | 0.881 | 0.439 | 0.793 | 0.633 | 0.435 |  |  |  |  | 
4 | A549 | 0.978 | 0.741 | 0.722 | 1.01 | 0.611 |  |  |  |  |  |  |  |  |  |  |  |  |  |  | 
5 | NCI-H1944 | 0.821 | 0.832 | 0.869 | 0.823 | 0.909 | 0.394 | 0.372 | 0.315 | 0.299 | 0.337 |  |  |  |  |  | 0.563 | 0.471 | 0.472 | 0.433 | 0.596
6 | NCI-H1563 | 0.902 | 0.962 | 1.07 | 1.13 | 0.905 |  |  |  |  |  | 0.791 | 0.937 | 0.859 | 0.844 | 0.776 |  |  |  |  | 
7 | NCI-H1395 | 1.05 | 1.3 | 1.08 | 1.19 | 0.888 | 0.638 | 0.648 | 0.591 | 0.62 | 0.587 |  |  |  |  |  | 0.376 | 0.443 | 0.389 | 0.432 | 0.385
8 | NCI-H2009 | 1.23 | 1.17 | 1.16 | 1.19 | 1.05 | 0.224 | 0.171 | 0.197 | 0.225 | 0.172 | 1.07 | 1.05 | 1.01 | 1.01 | 0.771 |  |  |  |  | 
9 | SK-MES-1 | 0.904 | 0.848 | 0.846 | 0.866 | 0.848 | 0.33 | 0.356 | 0.33 | 0.305 | 0.259 |  |  |  |  |  |  |  |  |  | 
10 | IA-LM | 0.762 | 0.738 | 0.682 | 0.913 | 0.804 |  |  |  |  |  | 1.01 | 0.874 | 0.895 | 0.68 | 0.758 |  |  |  |  | 
11 | SK-LU-1 | 1.11 | 0.961 | 1.1 | 1.01 | 0.937 | 0.368 | 0.377 | 0.411 | 0.427 | 0.341 | 1 | 1.07 | 1.63 | 1.21 | 0.941 |  |  |  |  | 
12 | NCI-H1703 | 0.472 | 0.36 | 0.275 | 0.388 | 0.348 |  |  |  |  |  | 0.365 | 0.268 | 0.242 | 0.322 | 0.293 | 0.124 | 0.11 | 0.139 | 0.123 | 0.122
13 | SW 900 |  |  |  |  |  | 0.692 | 0.531 | 0.493 | 0.468 | 0.567 |  |  |  |  |  | 0.612 | 0.579 | 0.687 | 0.585 | 0.421
